Test results published in ChEMBL document CHEMBL6109094, “Anti-inflammatory agents design via the fragment hybrid strategy in the discovery of compound c1 for treating ALI and UC” (Eur J Med Chem, 2025).
Active and inactive are the calls of the source. The rule behind the calls is not given here.

What was measured:
RAW264.7 [1] = experiment: Anti-inflammatory activity in mouse RAW264.7 cells assessed as inhibition of LPS-induced IL-6 level at 10 uM preincubated for 30 mins followed by LPS addition measured after 24 hrs by ELISA relative to control; assay type: functional; details: time 24.5 hrs
RAW264.7 [2] = experiment: cells; details: Mus musculus
Description: Anti-inflammatory activity in mouse RAW264.7 cells assessed as inhibition of LPS-induced IL-6 level preincubated for 30 mins followed by LPS addition measured after 24 hrs by ELISA

[3] = molecular target: T1, Tyrosine-protein kinase JAK3 (Homo sapiens, UniProt P52333); experiment: Inhibition of JAK3 (unknown origin)
T1 sequence (P52333 whole entry): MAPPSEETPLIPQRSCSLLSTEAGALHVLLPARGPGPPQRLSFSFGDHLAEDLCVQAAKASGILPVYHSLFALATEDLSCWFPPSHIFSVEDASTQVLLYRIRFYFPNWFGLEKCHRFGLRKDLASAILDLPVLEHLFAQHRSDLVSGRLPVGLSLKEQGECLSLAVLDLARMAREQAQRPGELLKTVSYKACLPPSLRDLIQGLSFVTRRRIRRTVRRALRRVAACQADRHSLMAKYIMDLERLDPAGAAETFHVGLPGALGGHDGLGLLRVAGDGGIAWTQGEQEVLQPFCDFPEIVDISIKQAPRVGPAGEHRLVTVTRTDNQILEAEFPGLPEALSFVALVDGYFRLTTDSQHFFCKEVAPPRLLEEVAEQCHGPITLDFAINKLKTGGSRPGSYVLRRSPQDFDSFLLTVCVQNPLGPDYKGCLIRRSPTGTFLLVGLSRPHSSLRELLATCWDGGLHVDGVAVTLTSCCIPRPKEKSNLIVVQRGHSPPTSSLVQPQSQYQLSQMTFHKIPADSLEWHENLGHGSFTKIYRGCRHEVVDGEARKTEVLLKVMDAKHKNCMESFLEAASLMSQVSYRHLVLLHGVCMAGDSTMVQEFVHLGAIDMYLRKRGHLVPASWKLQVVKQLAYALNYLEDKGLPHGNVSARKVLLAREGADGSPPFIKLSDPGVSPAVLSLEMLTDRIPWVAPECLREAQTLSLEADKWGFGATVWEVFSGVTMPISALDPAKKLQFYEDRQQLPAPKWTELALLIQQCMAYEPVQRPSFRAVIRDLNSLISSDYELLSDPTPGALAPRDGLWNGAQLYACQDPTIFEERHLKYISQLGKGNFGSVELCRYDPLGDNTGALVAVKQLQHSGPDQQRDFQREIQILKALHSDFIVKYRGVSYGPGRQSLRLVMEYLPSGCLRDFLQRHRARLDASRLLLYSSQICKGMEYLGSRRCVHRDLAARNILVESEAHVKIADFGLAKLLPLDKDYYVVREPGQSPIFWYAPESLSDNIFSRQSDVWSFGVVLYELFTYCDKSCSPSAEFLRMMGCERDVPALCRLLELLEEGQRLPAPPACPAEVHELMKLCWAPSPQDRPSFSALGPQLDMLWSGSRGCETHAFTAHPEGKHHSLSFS

Question: How did the inhibition at 10 µM (RAW264.7 [1]) turn out when COc1cc2ncnc(O[C@H]3CC[C@@H](NC(=O)CN4CCN(C(=O)OC(C)(C)C)CC4)CC3)c2cc1O was run?
Answer: Its inhibition at 10 µM is 11.8%.

Question: COc1cc2c(O[C@H]3CC[C@@H](N)CC3)ncnc2cc1OCc1cccc(C)c1 was tested. Which IC50 (RAW264.7 [2]) did it give?
Answer: Its IC50 is 600 nM.

Question: What about the inhibition at 10 µM (RAW264.7 [1]) of the same compound?
Answer: Its inhibition at 10 µM is 89.5%.

Question: For COc1cc2c(O[C@H]3CC[C@@H](NCCN4CCN(C(=O)OC(C)(C)C)CC4)CC3)ncnc2cc1O, which inhibition at 10 µM (RAW264.7 [1]) is on record?
Answer: Its inhibition at 10 µM is 53.6%.

Question: Which inhibition at 10 µM (RAW264.7 [1]) does the source give for COc1cc2ncnc(O[C@H]3CC[C@@H](NCCN4CCN(C(=O)OC(C)(C)C)CC4)CC3)c2cc1OC here?
Answer: Its inhibition at 10 µM is 10.8%.

Question: For COc1cc2ncnc(O[C@H]3CC[C@@H](NC(=O)CCN4CCN(C(=O)OC(C)(C)C)CC4)CC3)c2cc1O, which inhibition at 10 µM (RAW264.7 [1]) is on record?
Answer: The inhibition at 10 µM was 17.5%.

Question: For COc1cc2c(O[C@H]3CC[C@@H](N)CC3)ncnc2cc1OCc1ccc([N+](=O)[O-])cc1, which IC50 (RAW264.7 [2]) is on record?
Answer: The IC50 was 650 nM.

Question: And the inhibition at 10 µM (RAW264.7 [1])?
Answer: The inhibition at 10 µM was 86.6%.

Question: How did the IC50 [3] turn out when COc1cc2ncnc(Nc3cc(Br)c(O)c(Br)c3)c2cc1OC was run?
Answer: The IC50 was 2500 nM.

Question: How did the inhibition (RAW264.7 [1]) turn out when COc1cc2c(O[C@H]3CC[C@@H](N)CC3)ncnc2cc1OCc1ccc(Br)cc1 was run?
Answer: The inhibition was “inactive”.

Question: Which inhibition at 10 µM (RAW264.7 [1]) does the source give for Clc1ccc2c(O[C@H]3CC[C@@H](NCCN4CCNCC4)CC3)ncnc2c1 here?
Answer: Its inhibition at 10 µM is 58.9%.

Question: COc1cc2ncnc(O[C@H]3CC[C@@H](NCC4CCCN(C(=O)OC(C)(C)C)C4)CC3)c2cc1O (some centres not stated) was tested. Which inhibition at 10 µM (RAW264.7 [1]) did it give?
Answer: Its inhibition at 10 µM is 68.7%.

Question: Which inhibition at 10 µM (RAW264.7 [1]) does the source give for COc1cc2ncnc(O[C@H]3CC[C@@H](NC(=O)CN4CCNCC4)CC3)c2cc1O here?
Answer: Its inhibition at 10 µM is 37.1%.

Question: With COc1cc2c(O[C@H]3CC[C@@H](N)CC3)ncnc2cc1OCc1cccc([N+](=O)[O-])c1 as the compound, how does the inhibition at 10 µM (RAW264.7 [1]) read?
Answer: Its inhibition at 10 µM is 75.2%.

Question: With COc1cc2ncnc(O[C@H]3CC[C@@H](NCCN4CCN(C(=O)OC(C)(C)C)CC4)CC3)c2cc1OCc1ccccc1 as the compound, how does the inhibition at 10 µM (RAW264.7 [1]) read?
Answer: The inhibition at 10 µM was 58.1%.

Question: For COc1cc2ncnc(O[C@H]3CC[C@@H](NCCN4CCN(C(=O)OC(C)(C)C)CC4)CC3)c2cc1O, which inhibition at 10 µM (RAW264.7 [1]) is on record?
Answer: The inhibition at 10 µM was 59.4%.

Question: With COc1cc2ncnc(O[C@H]3CC[C@@H](NCCN4CCNCC4)CC3)c2cc1OC as the compound, how does the inhibition (RAW264.7 [1]) read?
Answer: The inhibition was “inactive”.

Question: For COc1cc2ncnc(O[C@H]3CC[C@@H](NC(=O)CCN4CCNCC4)CC3)c2cc1O, which inhibition at 10 µM (RAW264.7 [1]) is on record?
Answer: The inhibition at 10 µM was 9.85%.

Question: How did the inhibition (RAW264.7 [1]) turn out when COc1cc2c(O[C@H]3CC[C@@H](NCCN4CCN(C(=O)OC(C)(C)C)CC4)CC3)ncnc2cc1OCc1ccccc1 was run?
Answer: Its inhibition is “inactive”.

Question: Which results are given for COc1cc2c(O[C@H]3CC[C@@H](NCCN4CCNCC4)CC3)ncnc2cc1OCc1ccccc1?
Answer: IC50 (RAW264.7 [2]): 3550 nM; inhibition at 10 µM (RAW264.7 [1]): 74.2%

Question: With CC(C)(C)OC(=O)N1CCN(CCN[C@H]2CC[C@@H](Oc3ncnc4cc(Cl)ccc34)CC2)CC1 as the compound, how does the inhibition at 10 µM (RAW264.7 [1]) read?
Answer: The inhibition at 10 µM was 68.7%.

Question: Which inhibition at 10 µM (RAW264.7 [1]) does the source give for COc1cc2c(O[C@H]3CC[C@@H](N)CC3)ncnc2cc1OCc1ccccc1Br here?
Answer: The inhibition at 10 µM was 33.2%.

Question: With COc1cc2ncnc(O[C@H]3CC[C@@H](NCCN4CCNCC4)CC3)c2cc1O as the compound, how does the inhibition at 10 µM (RAW264.7 [1]) read?
Answer: The inhibition at 10 µM was 46.5%.

Question: How did the inhibition at 10 µM (RAW264.7 [1]) turn out when COc1cc2c(O[C@H]3CC[C@@H](NCCN4CCNCC4)CC3)ncnc2cc1O was run?
Answer: Its inhibition at 10 µM is 58.4%.

Question: How did the inhibition at 10 µM (RAW264.7 [1]) turn out when COc1cc2ncnc(O[C@H]3CC[C@@H](NCCN4CCNCC4)CC3)c2cc1OCc1ccccc1 was run?
Answer: The inhibition at 10 µM was 62.7%.

Question: COc1cc2c(O[C@H]3CC[C@@H](N)CC3)ncnc2cc1OCc1ccc(C)cc1 was tested. Which IC50 (RAW264.7 [2]) did it give?
Answer: Its IC50 is 1590 nM.

Question: What about the inhibition at 10 µM (RAW264.7 [1]) of the same compound?
Answer: The inhibition at 10 µM was 87.2%.

Question: For COc1cc2ncnc(O[C@H]3CC[C@@H](NCC4CCCNC4)CC3)c2cc1O (some centres not stated), which inhibition (RAW264.7 [1]) is on record?
Answer: The inhibition was “inactive”.

Question: How did the inhibition at 10 µM (RAW264.7 [1]) turn out when COc1cc2ncnc(O[C@H]3CC[C@@H](NCCN4CCN(C(C)=O)CC4)CC3)c2cc1O was run?
Answer: The inhibition at 10 µM was 66.1%.

Question: For COc1cc2c(O[C@H]3CC[C@@H](N)CC3)ncnc2cc1OCc1ccccc1[N+](=O)[O-], which inhibition at 10 µM (RAW264.7 [1]) is on record?
Answer: The inhibition at 10 µM was 30.6%.

Question: COc1cc2ncnc(O[C@H]3CC[C@@H](NCCCN4CCN(C)CC4)CC3)c2cc1O was tested. Which inhibition at 10 µM (RAW264.7 [1]) did it give?
Answer: Its inhibition at 10 µM is 4.51%.
